We go through one molecule from PubChem BioAssay AID602463 (NMMLSC, 2012).

The structures appear in SMILES notation.

For the data set, the system named is DS-PAMPA, 20% ACN buffer, UV absorbance, 30 min. Kind of data set: passive membrane permeability of hits, cosolvent PAMPA, late-stage follow-up, ADME assay for GPR30 and estrogen receptor ligands, biophysical, double-sink PAMPA, 20% ACN buffer, pH 5.0/6.2/7.4 (AID 602463). The note with it: stronger effect = higher value. In general terms: PAMPA measures passive passage across an artificial lipid membrane.

On to `CC(=O)c1ccc2c(c1)[C@@H]1C=CC[C@@H]1[C@H](c1cc3c(cc1Br)OCO3)N2`, for which the permeability pH 7.4 was 316 10^-6 cm/s. Besides, for the setting “measured here: PAMPA permeability at pH 5.0”, the permeability pH 5.0 was 349 10^-6 cm/s. Further, the permeability pH 6.2 (measured here: PAMPA permeability at pH 6.2) was 565 10^-6 cm/s.
